Source: US8163737B2 (Vertex Pharmaceuticals Incorporated, priority 2006, dated 2012)

Molecular target: endogenous CGRP receptor (Homo sapiens, UniProt O60894+Q16602)
Experiment: CGRP functional antagonism using SK-N-MC-BLA (4C10), β-lactamase transcriptional reporter assay
Format: cell-based
Details: SK-N-MC (4C10) cells, inhibition of β-lactamase expression in the presence of 200 pM CGRP
Text: Measuring CGRP Functional Antagonism Using SK-N-MC-BLA (4C10):
CGRP functional antagonism was characterized in a cell based transcriptional assay using a recombinant SK-N-MC line. To introduce the transcriptional reporter system, SK-N-MC cell line was transduced with a retroviral vector containing β-lactamase gene downstream of cAMP responsive promoter. The expression of β-lactamase is triggered by cAMP increase that is a downstream event of activation of endogenous CGRP receptor. Single clones were separated using Fluorescent Activated Cell Sorting (FACS) based on CGRP induced β-lactamase activity. β-lactamase activity was measured using a fluorescence energy transfer (FRET) dye, CCF4. […] To evaluate functional antagonist activity of compounds in SK-N-MC (4C10) line, compounds were evaluated for their inhibition of β-lactamase expression in the presence of CGRP.
SK-N-MC (4C10) was cultured in Minimal Essential Media (MEM) (Invitrogen) supplemented with 1 mM non-essential amino acids solution (Invitrogen), 100 units/ml Penicillin-Streptomycin (Invitrogen), 1 mM sodium pyruvate (Invitrogen) and 10% fetal bovine serum. For the β-lactamase assay, low serum, 1% FBS in MEM was used. 30,000 cells were plated into each wells of poly-D-lysine coated 384-well plate (Becton Dickinson) a day prior to the assay. SK-N-MC (4C10) was preincubated with compounds for 30 min before the addition of 200 pM CGRP. The assay was incubated for 3 hours at 37° C. to allow β-lactamase expression. CCF4 dye was added and incubated for 2 hours at room temperature. […] Curve fitting and IC50 calculation were carried about using MOD3.

endogenous CGRP receptor, sequence (Q16602 23-461): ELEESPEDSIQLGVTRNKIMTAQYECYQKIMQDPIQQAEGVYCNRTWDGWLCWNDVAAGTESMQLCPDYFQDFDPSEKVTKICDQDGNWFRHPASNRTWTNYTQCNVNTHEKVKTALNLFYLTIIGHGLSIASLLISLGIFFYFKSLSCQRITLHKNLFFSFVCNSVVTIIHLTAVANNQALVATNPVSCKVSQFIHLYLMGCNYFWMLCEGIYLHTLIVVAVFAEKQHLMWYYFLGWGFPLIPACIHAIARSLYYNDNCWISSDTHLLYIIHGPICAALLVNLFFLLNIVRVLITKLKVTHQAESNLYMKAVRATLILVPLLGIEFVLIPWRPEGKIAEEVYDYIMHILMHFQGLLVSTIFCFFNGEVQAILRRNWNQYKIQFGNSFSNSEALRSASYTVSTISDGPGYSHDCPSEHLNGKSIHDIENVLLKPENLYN
endogenous CGRP receptor, sequence (O60894 27-148): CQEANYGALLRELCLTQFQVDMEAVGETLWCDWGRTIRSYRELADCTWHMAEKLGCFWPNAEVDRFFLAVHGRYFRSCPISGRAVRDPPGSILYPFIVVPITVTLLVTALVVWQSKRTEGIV

Row | Structure (SMILES) | IC50 [µM]
1 | O=C(CC1SC(c2ccccc2)N(CC2CC2)C1=O)N1CCC(N2CCc3ccccc3NC2=O)CC1 (stereo not shown) [Compound 138] | < 1
2 | COc1cccc(C2SC(CC(=O)N3CCC(N4Cc5ccccc5NC4=O)CC3)C(=O)N2CCC(C)C)c1 (stereo not shown) [Compound 139] | 1 to 5
3 | CC(=O)C1(c2ccccc2)CCN(C(=O)CC2SC(c3ccccc3)N(CCC(C)C)C2=O)CC1 (stereo not shown) [Compound 141] | > 5
4 | CC(=O)Nc1ccc(C)cc1C1(O)CCN(C(=O)CC2SC(c3ccccc3)N(CCC(C)C)C2=O)CC1 (stereo not shown) [Compound 143] | > 5
5 | CCC1SC(CC(=O)N2CCC(n3cc(-c4ccccc4)[nH]c3=O)CC2)C(=O)N1CC1CC1 (stereo not shown) [Compound 146] | > 5
6 | CCC(CC)C1SC(CC(=O)N2CCC(N3Cc4ccccc4NC3=O)CC2)C(=O)N1CCC(C)C (stereo not shown) [Compound 151] | < 1
7 | CC(C)CCN1C(=O)C(CC(=O)N2CCC(N3CCc4ccccc4NC3=O)CC2)SC1c1ccccc1N(C)C (stereo not shown) [Compound 152] | < 1
8 | CC(C)(C)CCN1C(=O)C(CC(=O)N2CCC(N3Cc4ccccc4NC3=O)CC2)SC12CCCCCC2 (stereo not shown) [Compound 154] | < 1
9 | CC(C)CCN1C(=O)C(CC(=O)N2CCC(N3CCc4ccccc4NC3=O)CC2)SC1c1ccc(F)c(F)c1 (stereo not shown) [Compound 155] | < 1
10 | CC(C)CCN1C(=O)C(C(C)C(=O)N2CCC(N3Cc4ccccc4NC3=O)CC2)SC1c1ccccc1 (stereo not shown) [Compound 156, 3-(1-(2-(3-Isopentyl-4-oxo-2-phenylthiazolidin-5-yl)propanoyl)piperidin-4-yl)-3,4-dihydroquinazolin-2(1H)-one] | < 1
11 | CC(=O)N1CCC2(CCN(C(=O)CC3SC(c4ccccc4)N(CCC(C)C)C3=O)CC2)c2ccccc21 (stereo not shown) [Compound 157] | > 5
12 | CC(C)CCN1C(=O)C(CC(=O)N2CCC(N3Cc4ccccc4NC3=O)CC2)SC1c1ccc(Cl)cc1 (stereo not shown) [Compound 158] | 1 to 5
13 | CN1CCN(c2ccccc2[C@@H]2SC(CC(=O)N3CCC(n4c(=O)[nH]c5ccccc54)CC3)C(=O)N2CCC(C)(C)C)CC1 (stereo partly shown) [Compound 161] | < 1
14 | O=C(CC1SC(c2ccccc2F)N(CC2CCCCC2)C1=O)N1CCC(N2CCc3ccccc3NC2=O)CC1 (stereo not shown) [Compound 164] | 1 to 5
15 | CC(C)CCN1C(=O)C(CC(=O)N2CCC(N3Cc4ccccc4NC3=O)CC2)SC1c1c(F)cccc1Cl (stereo not shown) [Compound 166] | < 1
16 | CC(C)CCN1C(=O)C(CC(=O)N2CCC3(CCc4ccccc43)CC2)SC1c1ccccc1 (stereo not shown) [Compound 167] | > 5
17 | CC(C)(C)CCN1C(=O)C(CC(=O)N2CCC(N3Cc4ccccc4NC3=O)CC2)SC1c1cccc2cc[nH]c12 (stereo not shown) [Compound 168] | 1 to 5
18 | CCN1C(=O)C(CC(=O)N2CCC(N3Cc4ccccc4NC3=O)CC2)SC1c1ccccc1 (stereo not shown) [Compound 177] | 1 to 5
19 | COC(=O)[C@@H](CC(C)C)N1C(=O)C(CC(=O)N2CCC(N3Cc4ccccc4NC3=O)CC2)SC1c1ccccc1 (stereo partly shown) [Compound 178] | 1 to 5
20 | Cc1cc(C2SC(CC(=O)N3CCC(N4Cc5ccccc5NC4=O)CC3)C(=O)N2CCC(C)(C)C)cc2cn[nH]c12 (stereo not shown) [Compound 179] | < 1
21 | CC(C)CCN1C(=O)C(CC(=O)N2CCC(N3CCc4ccccc4NC3=O)CC2)SC1[C@H](C)c1ccccc1 (stereo partly shown) [Compound 180] | 1 to 5

Row | Structure (SMILES) | IC50 [µM]
22 | CC1=CCCC(C)C1C1SC(CC(=O)N2CCC(N3CCc4ccccc4NC3=O)CC2)C(=O)N1CCC(C)C (stereo not shown) [Compound 181] | < 1
23 | O=C(CC1SC(c2ccccc2)N(Cc2cccnc2)C1=O)N1CCC(N2CCc3ccccc3NC2=O)CC1 (stereo not shown) [Compound 185] | < 1
24 | CC(C)CCN1C(=O)C(CC(=O)N2CCC3(CC2)C(=O)NCN3c2ccccc2)SC1c1ccccc1 (stereo not shown) [Compound 186] | > 5
25 | O=C(CC1SC(Cc2ccccc2)N(CC(F)(F)F)C1=O)N1CCC(n2cc(-c3ccccc3)[nH]c2=O)CC1 (stereo not shown) [Compound 189] | > 5
26 | O=C(CC1SC(c2ccccc2)N(CCC(F)(F)F)C1=O)N1CCC(N2Cc3ccccc3NC2=O)CC1 (stereo not shown) [Compound 191] | < 1
27 | CCCC1SC(CC(=O)N2CCC(N3Cc4ccccc4NC3=O)CC2)C(=O)N1CCC(C)C (stereo not shown) [Compound 192] | < 1
28 | CC(C)CCN1C(=O)C(CC(=O)N2CCC(N3Cc4ccccc4NC3=O)CC2)SC12CCOCC2 (stereo not shown) [Compound 196] | 1 to 5
29 | CC(C)CCN1C(=O)C(CC(=O)N2CCC(N3Cc4ccccc4NC3=O)CC2)SC1c1ccc(C(C)(C)C)cc1 (stereo not shown) [Compound 197] | > 5
30 | CC(C)CCN1C(=O)C(CC(=O)N2CCC(NC(=O)Nc3ccccn3)CC2)SC1c1ccccc1 (stereo not shown) [Compound 200] | > 5
31 | CC(C)CCN1C(=O)C(CC(=O)N2CCC(N3Cc4ccccc4NC3=O)CC2)SC1C1CCOCC1 (stereo not shown) [Compound 201] | 1 to 5
32 | COC(=O)[C@H](CC(C)C)N1C(=O)C(CC(=O)N2CCC(N3Cc4ccccc4NC3=O)CC2)SC1c1ccccc1 (stereo partly shown) [Compound 205] | 1 to 5
33 | Cc1cc(C2SC(CC(=O)N3CCC(N4CCc5ccccc5NC4=O)CC3)C(=O)N2CCC(C)C)cc2cn[nH]c12 (stereo not shown) [Compound 206] | < 1
34 | CCC(CC)C1SC(CC(=O)N2CCC(N3CCc4ccccc4NC3=O)CC2)C(=O)N1CCC(C)C (stereo not shown) [Compound 207] | < 1
35 | CC(C)CCN1C(=O)C(CC(=O)N2CCC(N3Cc4ccccc4NC3=O)CC2)SC1C1CCCOC1 (stereo not shown) [Compound 209] | < 1
36 | O=C(CC1SC(c2c(F)cccc2F)N(CC2CCCCC2)C1=O)N1CCC(N2Cc3ccccc3NC2=O)CC1 (stereo not shown) [Compound 210] | < 1
37 | CC(=O)Nc1ccc(C2SC(CC(=O)N3CCC(N4Cc5ccccc5NC4=O)CC3)C(=O)N2CCC(C)C)cc1 (stereo not shown) [Compound 213] | 1 to 5
38 | CC(C)CC(CO)N1C(=O)C(CC(=O)N2CCC(N3CCc4ccccc4NC3=O)CC2)SC1c1ccccc1 (stereo not shown) [Compound 214] | 1 to 5
39 | CC(C)CCN1C(=O)C(CC(=O)N2CCC(N3CCc4ccccc4NC3=O)CC2)SC1c1ccccc1N1CCCCC1 (stereo not shown) [Compound 215] | < 1
40 | CC(C)(C)CCN1C(=O)C(CC(=O)N2CCC(N3CCc4ccccc4NC3=O)CC2)SC1c1c(F)cccc1F (stereo not shown) [Compound 217] | < 1
41 | CCC1SC(CC(=O)N2CCC(n3c(=O)[nH]c4ccccc43)CC2)C(=O)N1CC(F)(F)F (stereo not shown) [Compound 218] | > 5
42 | CC(C)CCN1C(=O)C(CC(=O)N2CCC(N3Cc4ccccc4NC3=O)CC2)SC1c1cccc(C(F)(F)F)c1F (stereo not shown) [Compound 219] | 1 to 5

Row | Structure (SMILES) | IC50 [µM]
43 | CC(C)CCN1C(=O)C(CC(=O)N2CCC(N3CCc4ccccc4NC3=O)CC2)SC1c1c(F)cccc1Cl (stereo not shown) [Compound 221] | < 1
44 | Cc1ccc(C2SC(CC(=O)N3CCC(N4Cc5ccccc5NC4=O)CC3)C(=O)N2CCC(C)C)c(C)c1 (stereo not shown) [Compound 222] | < 1
45 | CC(C)CCN1C(=O)C(CC(=O)N2CCC3(CC2)OC(=O)Nc2ccccc23)SC1c1ccccc1 (stereo not shown) [Compound 223] | > 5
46 | COc1ccc(C2SC(CC(=O)N3CCC(N4Cc5ccccc5NC4=O)CC3)C(=O)N2CCC(C)C)cc1OC (stereo not shown) [Compound 228] | 1 to 5
47 | O=C(CC1SC(c2ccccc2)N(CCc2ccccc2)C1=O)N1CCC(N2CCc3ccccc3NC2=O)CC1 (stereo not shown) [Compound 231] | < 1
48 | CC(C)CCN1C(=O)C(CC(=O)N2CCC(N3Cc4ccccc4NC3=O)CC2)SC1c1ccc2c(c1)OCCN2C (stereo not shown) [Compound 232] | 1 to 5
49 | O=C(CC1SC(c2ccccc2)N(CC(F)(F)C(F)(F)F)C1=O)N1CCC(N2CCc3ccccc3NC2=O)CC1 (stereo not shown) [Compound 233] | < 1
50 | CC(C)(C)CCN1C(=O)C(CC(=O)N2CCC(N3Cc4ccccc4NC3=O)CC2)SC1c1ccc(F)cc1F (stereo not shown) [Compound 234] | < 1
51 | CC(C)(C)CCN1C(=O)C(CC(=O)N2CCC(N3Cc4ccccc4NC3=O)CC2)SC1c1ccccc1N1CCCCC1 (stereo not shown) [Compound 235] | 1 to 5
52 | CC(C)C[C@H](CO)N1C(=O)C(CC(=O)N2CCC(N3Cc4ccccc4NC3=O)CC2)SC1c1ccccc1 (stereo partly shown) [Compound 238] | 1 to 5
53 | CC(C)CCN1C(=O)C(CC(=O)N2CCC(N3CCc4ccccc4NC3=O)CC2)SC1C1CCCOC1 (stereo not shown) [Compound 239] | < 1
54 | CC(C)CCN1C(=O)C(CC(=O)N2CCC(N3Cc4ccccc4NC3=O)CC2)SC12C=CC(C)(C)CC2 (stereo not shown) [Compound 241] | 1 to 5
55 | CC(C)CCN1C(=O)C(CC(=O)N2CCC(N3Cc4ccccc4NC3=O)CC2)SC1c1ccc(Br)cc1 (stereo not shown) [Compound 242] | 1 to 5
56 | COC(=O)[C@@H](CC1CCCCC1)N1C(=O)C(CC(=O)N2CCC(N3CCc4ccccc4NC3=O)CC2)SC1c1ccccc1 (stereo partly shown) [Compound 243] | 1 to 5
57 | CC(C)CC1SC(CC(=O)N2CCC(N3CCc4ccccc4NC3=O)CC2)C(=O)N1CCc1ccncc1 (stereo not shown) [Compound 245] | > 5
58 | CC(C)CCN1C(=O)C(CC(=O)N2CCC(N3Cc4ccccc4NC3=O)CC2)SC1c1ccccc1OCc1ccccc1 (stereo not shown) [Compound 246] | < 1
59 | CC(C)CCN1C(=O)C(CC(=O)N2CCC(N3CCc4ccccc4NC3=O)CC2)SC1c1cccc(OC(F)(F)C(F)F)c1 (stereo not shown) [Compound 247] | 1 to 5
60 | CC(C)CCN1C(=O)C(CC(=O)N2CCC(c3cc4ccccc4[nH]c3=O)CC2)SC1c1ccccc1 (stereo not shown) [Compound 249] | < 1
61 | COCC(C)N1C(=O)C(CC(=O)N2CCC(N3Cc4ccccc4NC3=O)CC2)SC1c1ccccc1 (stereo not shown) [Compound 250] | > 5
